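96-well plates; 48 h exposure; 5 concentrations. Endpoints by linear interpolation between flanking doses. Not reached: highest tested concentration assigned. GI50 = concentration required for 50% inhibition of growth.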 The source made the active and inactive calls. No stated cut-off is given here; in the data, active = GI50 up to about 1.1 µM and inactive = higher.
Tests used:
Test in all cases: DTP human tumour cell line panel, 48 h
Malme-3M = system: Malme-3M
SK-MEL-28 = system: SK-MEL-28
SF-539 = system: SF-539
OVCAR-3 = system: OVCAR-3
KM-20L2 = system: KM-20L2
OVCAR-8 = system: OVCAR-8
SW-620 = system: SW-620
HCT-116 = system: HCT-116
K562 = system: K562
SN12C = system: SN12C
SNB-75 = system: SNB-75
LOX IMVI = system: LOX IMVI
786-0 = system: 786-0
SR = system: SR
NCI-H23 = system: NCI-H23
HCC 2998 = system: HCC 2998
MCF7 = system: MCF7
NCI/ADR-RES = system: NCI/ADR-RES
MDA-MB-435 = system: MDA-MB-435
T47D = system: T47D

Measured: GI50

CN(C)/C=N/c1nc2ncn(CCOC(=O)c3ccccc3)c2c(=O)[nH]1
inactive: Malme-3M > 100 µM | SK-MEL-28 > 100 µM | SF-539 > 100 µM | OVCAR-3 > 100 µM | KM-20L2 > 100 µM | OVCAR-8 > 100 µM | SW-620 > 100 µM | HCT-116 > 100 µM | K562 > 100 µM | SN12C > 100 µM | SNB-75 > 100 µM | LOX IMVI > 100 µM | 786-0 > 100 µM | SR > 100 µM

Brc1ccc(N2C[N+](c3ccc(Br)cc3)=NC(c3ccccc3)=N2)cc1
inactive: NCI-H23 16.1 µM | Malme-3M 16.7 µM | SK-MEL-28 23 µM | SF-539 15.8 µM | KM-20L2 18.2 µM | OVCAR-8 21.9 µM | SW-620 20.9 µM | HCT-116 18.8 µM | K562 10.9 µM | HCC 2998 15.4 µM | SN12C 19 µM | SNB-75 26.1 µM | 786-0 16 µM

COc1ccc(C2c3cc(OC)c(OC)cc3C(Cc3ccc([N+](=O)[O-])cc3)C2c2ccc([N+](=O)[O-])cc2)cc1OC (configuration not stated)
inactive: NCI-H23 > 100 µM | Malme-3M > 100 µM | SK-MEL-28 > 100 µM | SF-539 > 100 µM | OVCAR-3 > 100 µM | KM-20L2 > 100 µM | OVCAR-8 > 100 µM | SW-620 > 100 µM | HCT-116 14 µM | K562 > 100 µM | HCC 2998 > 100 µM | SN12C > 100 µM | SNB-75 49.7 µM | LOX IMVI > 100 µM | 786-0 > 100 µM

CN1Cc2c(nc(-c3ccc(Br)cc3)c[n+]2[O-])N(C)C1
inactive: NCI-H23 > 100 µM | Malme-3M > 100 µM | SK-MEL-28 > 100 µM | SF-539 > 100 µM | OVCAR-3 > 100 µM | KM-20L2 > 100 µM | OVCAR-8 > 100 µM | SW-620 > 100 µM | HCT-116 > 100 µM | K562 > 100 µM | SN12C > 100 µM | SNB-75 > 100 µM | 786-0 > 100 µM | SR > 100 µM

CCOC(=O)NC(Nc1ccc(C(=O)OCC)cc1)(C(F)(F)F)C(F)(F)F
inactive: NCI-H23 > 100 µM | Malme-3M > 100 µM | SK-MEL-28 > 100 µM | SF-539 > 100 µM | OVCAR-3 > 100 µM | MCF7 > 100 µM | OVCAR-8 > 100 µM | NCI/ADR-RES > 100 µM | SW-620 61.4 µM | MDA-MB-435 51.2 µM | HCT-116 > 100 µM | T47D 49 µM | K562 9.29 µM | HCC 2998 > 100 µM | SN12C > 100 µM | SNB-75 > 100 µM | LOX IMVI 4.26 µM | 786-0 > 100 µM | SR 86.3 µM

Clc1ccc(-c2nn3c(CCCCCCCCc4nnc5sc(-c6ccc(Cl)cc6)nn45)nnc3s2)cc1
inactive: NCI-H23 27.1 µM | Malme-3M 45.2 µM | SK-MEL-28 23.6 µM | SF-539 19.9 µM | OVCAR-3 19.8 µM | MCF7 5.81 µM | OVCAR-8 18.7 µM | NCI/ADR-RES 21 µM | SW-620 29.2 µM | MDA-MB-435 17 µM | HCT-116 15.9 µM | T47D 4.67 µM | K562 20 µM | HCC 2998 48.3 µM | SN12C 17.5 µM | SNB-75 19.9 µM | LOX IMVI 7.24 µM | 786-0 20.1 µM | SR 17.1 µM

CC/C(=N/O)c1ccc(Br)s1
inactive: NCI-H23 > 100 µM | Malme-3M > 100 µM | SK-MEL-28 > 100 µM | SF-539 27.1 µM | OVCAR-3 > 100 µM | MCF7 > 100 µM | OVCAR-8 > 100 µM | NCI/ADR-RES > 100 µM | SW-620 > 100 µM | MDA-MB-435 > 100 µM | HCT-116 > 100 µM | T47D 70 µM | K562 > 100 µM | HCC 2998 > 100 µM | SN12C > 100 µM | SNB-75 67.8 µM | LOX IMVI 51.9 µM | 786-0 > 100 µM | SR 40.3 µM

O=C1SC(SCc2ccccc2)=NC12CC2c1ccccc1 (configuration not stated)
inactive: NCI-H23 20.1 µM | Malme-3M 17.7 µM | SK-MEL-28 19 µM | SF-539 20.7 µM | OVCAR-3 27.7 µM | MCF7 18.8 µM | OVCAR-8 19.4 µM | NCI/ADR-RES 23.9 µM | SW-620 22.4 µM | MDA-MB-435 22.1 µM | HCT-116 16.6 µM | T47D 28.5 µM | K562 19.5 µM | HCC 2998 7.62 µM | SN12C 20 µM | SNB-75 29.2 µM | LOX IMVI 18.8 µM | 786-0 19.4 µM | SR 21.3 µM

From ChEMBL document CHEMBL1201862, “PubChem BioAssay data set” (2004)
